Test results: EP4772500A1, “NOVEL ISOXAZOLE COMPOUND AS TM4SF5-SPECIFIC INHIBITOR AND USE THEREOF” (Seoul National University R&DB Foundation, priority 2023, dated 2025)

Key:
[1] = test system: TM4SF5-expressing cells (SNU449T7); experiment: Western blotting for signaling factors whose phosphorylation increases in a TM4SF5-expression dependent manner; format: cell-based, human; conditions: for phosphorylation of FAK, c-Src, STAT3, p27, S6K1, AKT, and STAT5: 24 hours (FIG. 9a-b); for phosphorylation of FAK, c-Src, STAT3, p27, S6K1, and AKT / phosphorylation of FAK, STAT3, c-Src, S6K1, Akt, and p27: given concentrations
Procedure: Cell extracts were obtained from cells grown to a density of 70-80% without any treatment, or from cells treated with vehicle DMSO or drugs at the given concentrations for 24 hours. For the extract of hepatocytes or liver cancer cells, a lysis buffer (150 mM NaCl, 1% NP-40, 50 mM Tris-HCl, 0.25% sodium deoxycholate, pH 7.4) including a protease inhibitor cocktail (GenDEPOT) was used. In addition, after washing animal liver tissue twice with PBS, SDS, Na3VO4, and protease inhibitor cocktails (GenDEPOT) were added to a lysis buffer [50 mM Tris-HCl, pH 7.4, 1% NP40, 0.25% sodium deoxycholate, 150 mM NaCl, 1 mM EDTA (based on 500 ml)], followed by treatment at 4°C for 15 minutes. After centrifugation at 13,000 rpm at 4°C for 30 minutes, only the supernatant was transferred to a new microcentrifuge tube. After quantification using BCA reagent (Thermo Scientific), a 4 × sample buffer [100% glycerol 4 ml, Tris-HCl, pH 6.8, 2.4 ml, SDS 0.8 g, Bromophenol blue 4 mg, betamercaptoethanol 0.4 ml, H2O 3.1 ml (based on 10 ml)] was added, followed by boiling at 100°C for 5 minutes. After performing SDS-PAGE electrophoresis with the above samples and transferring them to Nitrocellulose Membranes Protran™ nitrocellulose membranes (Whatman), pre-treatment was performed with 5% skim milk for 1 hour. After pre-treatment, primary antibodies of p-FAK(Y861) (SC-16663), p-FAK(Y577) (SC-16665), c-Src (SC-8056), STAT3 (SC-8019), p-AKT 1/2/3(S473) (SC-7985), STATS (SC-835), Laminin γ2 (SC-393225), COL1A1 (SC-28657), CCL5(RANTES) (SC-514019) CCL20(MIP-3α) (SC-517441), SIRT1 (SC-74465), ChREBP (SC-515922), SREBP1 (SC-366513), DGAT1 (SC-271934), DGAT2 (SC-293211), MICA/B (SC-137242), SLAMF7 (SC-390840), α-tublin (SC-5286), β-actin (SC-47778), FUCA (SC-365496) (the above from Santa Cruz Biotech, USA), p-FAK(Y397) (cat # 611723), FAK (cat # 610088), p27 (cat # 610242) (the above from BD Transduction, USA), p-FAK(Y925) (#3284) p-c-Src(Y416) (#2101), p-STAT3(Y705) (#9145), p70S6K1 (#9202), p-p70S6K1(T389) (#9205), p-STAT5(Y694) (#9314), ACC (#3676), FASN (#3189), CPT1A (#12252), p-ACC(S79) (#11818), HA (#3724), PD-L1 (#13684), PD-1 (#86163), p-ERK1/2(T202/Y204) (#9101s), ERK1/2 (#9102s) (the above from Cell Signaling Tech., USA), pS10p27(S10) (ab62364), human SLAMF6 (ab224201), TIGIT (ab233404), CD34 (ab81289) (the above from Abcam, UK), mouse SLAMF6 (PA5-87823), NKG2D (PA5-102038) (the above from Thermofisher, USA), α-SMA (Sigma Aldrich, A5228), CCL2 (Invitrogen, MA5-17040), and CD155(PVR) (Biolegend, 337601), HA (Biolegend, USA), Strep-HRP(horse-radish peroxidase), StrepMAB-HRP (IBA, USA), AFP (FineTest, FNab00203) were reacted at 4°C for 15 hours. The next day, secondary antibodies were reacted, and development was performed on X-ray film using ECL (Pierce, USA). Anti-TM4SF5C-ter (epitope region of RKKQDTPH^197) and anti-TM4SF5EC2 (CLMNGEWGYHFEDTAGA^130) were custom-made at a professional antibody production company (Pro-Sci, Poway, CA, USA).
Cell extracts were obtained before and after treating TM4SF5-non-expressing cells (SNU449Cp) and TM4SF5-expressing cells (SNU449T7) with ST-1-024 or ST-1-025 drugs at the given concentrations for 24 hours, and Western blotting was performed for signaling factors whose phosphorylation and activity increase in a TM4SF5-expression dependent manner.
(a) Cell extracts were obtained after treating TM4SF5-non-expressing cells (SNU449Cp) and TM4SF5-expressing cells (SNU449T7) with vehicle (DMSO), TSAHC, or isoxazole compounds ST-2-001, ST-2-002, ST-2-003, ST-2-004, ST-2-005, ST-2-006, ST-2-007, ST-2-008, ST-2-009, ST-2-010, or ST-2-011 at a dose of 5 µM (for 24 hours). Using these, Western blotting was performed for signaling factors whose phosphorylation and activity increase in a TM4SF5-expression dependent manner. […]

[2] = test system: TM4SF5-expressing cells (SNU449T7); experiment: 3D sphere growth/proliferation; format: cell-based, human; conditions: for degree of cell proliferation (spheres): 2.5 µM on the 0 and 3rd days, observed 6th day (FIG. 5b); for cell proliferation inhibitory effect: 0.5 or 2.5 µM (FIG. 10a, b), comparison among drugs; for survival/proliferation of the spheres: given concentrations on the 0, 3, 6, and 9th days, observed 10th day (FIG. 12b-c)
Procedure: TM4SF5-non-expressing cells (SNU449Cp) and TM4SF5-expressing cells (SNU449T7) of the same number (200 cells/well or 1000 cells/well) were added per well into Costar Ultra-Low Attachment Multiple Well Plates (CORNING), and were then treated with vehicle (DMSO) or drugs at various concentrations and cultured in a cell incubator under conditions of 37°C and 5% CO2. After repeatedly treating with the same concentrations of drugs every few days at regular intervals as indicated from the date of cell culture, the proliferation of the cells (spheres) was observed and photographed using an optical microscope on the last day of observation.
The drugs treated were the positive control drug TSAHC or the ST-1-025 isoxazole compound at the given concentrations. From the time of starting culture (0 day), (FIG. 3a) in the case of 2D culture, the number of cells was measured after treating with the drug every 24 hours, or (FIG. 3b) in a 3D environment, the proliferation of cells (spheres) was observed and photographed with an optical microscope on the 5th and 7th days after a single drug treatment at the start of culture. […]

[3] = SNU449T7, given concentrations, 24 hours (FIG. 2)
[4] = single treatment at 5 µM at start of culture, observed 5th and 7th days (FIG. 3b)
[5] = 0.5 or 2.5 µM, observed 6th or 10th day (FIG. 10a, b)
[6] = 0.1 or 1.0 µM, observed 10th day (FIG. 10c)

COc1ccc(-c2cc(-c3ccc(N)cc3)no2)cc1 [ST-1-025, 4-(5-(4-methoxyphenyl)isoxazole-3-yl)aniline] was tested, and the “phosphorylation of FAK, c-Src, STAT3, and p27” value [1, 3] was “decreased”, the “degree of sphere proliferation” value ([2]; repeated treatment at given concentrations on the 0, 5, and 6th days, observed 7th day (FIG. 3c)) was “inhibited by ST-1-025 in a concentration-dependent manner, albeit slightly” and the “degree of sphere proliferation” value [2, 4] was “inhibited, albeit slightly”.
COc1ccc(-c2cc(-c3ccc(NC(C)=O)cc3)no2)cc1 [ST-2-001, N-(4-(5-(4-methoxyphenyl)isoxazole-3-yl)phenyl)acetamide] was tested, and the “phosphorylation of FAK, c-Src, STAT3, and p27” value ([1]; 5 µM, 24 hours (FIG. 5a)) was “decreased”, the “phosphorylation of FAK, c-Src, STAT3, p27, S6K1, AKT, and STAT5” value (“phosphorylation of FAK, c-Src … and STAT5” below) ([1]; 5 µM) was “decreased” and the “phosphorylation of FAK, c-Src, STAT3, p27, S6K1, and AKT” value (“phosphorylation of FAK, c-Src … and AKT” for short) ([1]; 24 hours (FIG. 5c)) was “decreased in a drug concentration-dependent manner”. For the same compound, the “phosphorylation of FAK, c-Src … and AKT” value ([1]; 24 hours (FIG. 9c)) was “decreased in a concentration-dependent manner”, the “phosphorylation of FAK, STAT3, c-Src, S6K1, Akt, and p27” value (from here on “phosphorylation of FAK, STAT3, c-Src”) ([1]; 24 hours (FIG. 12a)) was “inhibited in many cases including STAT3, S6K1, and FAK” and the “phosphorylation of FAK, STAT3, c-Src” value ([1]; 24 hours (FIG. 12d)) was “inhibited”. The “degree of cell proliferation (spheres)” value [2] was “inhibited”, the “cell proliferation inhibitory effect” value [2] was “strong” and the “degree of three-dimensional cell proliferation” value [2, 5] was “inhibited”. The “survival/proliferation of the spheres” value [2] was “inhibited”.
In the case of CC(=O)Nc1ccc(-c2cc(-c3ccc(F)cc3)on2)cc1 [ST-3-006, N-(4-(5-(4-fluorophenyl)isoxazole-3-yl)phenyl)acetamide], the “phosphorylation of FAK, c-Src … and STAT5” value ([1]; 5 µM) is reported as “decreased”, the “phosphorylation of FAK, c-Src … and AKT” value ([1]; 24 hours (FIG. 9c)) is reported as “decreased in a concentration-dependent manner” and the “degree of three-dimensional cell proliferation” value [2, 6] is reported as “decreased”. For the same compound, the “cell proliferation inhibitory effect” value [2] was “strong” and the “degree of three-dimensional cell proliferation” value [2, 5] was “inhibited”.
For COc1ccc(-c2cc(-c3cccc(NC(C)=O)c3)no2)cc1 [ST-3-011, N-(3-(5-(4-methoxyphenyl)isoxazole-3-yl)phenyl)acetamide], the “phosphorylation of FAK, c-Src … and STAT5” value ([1]; 5 µM) was “decreased”, the “phosphorylation of FAK, c-Src … and AKT” value ([1]; 24 hours (FIG. 9c)) was “decreased in a concentration-dependent manner” and the “degree of three-dimensional cell proliferation” value [2, 6] was “decreased”. The “degree of three-dimensional cell proliferation” value [2, 5] was “inhibited”.
With CC(=O)Nc1ccc(-c2cc(-c3ccc(O)cc3)no2)cc1 [ST-5-001, N-(4-(3-(4-hydroxyphenyl)isoxazole-5-yl)phenyl)acetamide] the “phosphorylation of FAK, STAT3, c-Src” value ([1]; 24 hours (FIG. 12d)) was “inhibited” and the “survival/proliferation of the spheres” value [2] was “inhibited”.
For Cc1ccc(C(=O)Nc2ccc(-c3cc(-c4ccc(O)cc4)no3)cc2)cc1 [ST-5-002, N-(4-(3-(4-hydroxyphenyl)isoxazole-5-yl)phenyl)-4-methylbenzamide], the phosphorylation inhibitory efficacy ([1]; drug with improved purity (FIG. 12d)) was “maintained and further improved”, the “phosphorylation of FAK, STAT3, c-Src” value ([1]; 24 hours (FIG. 12d)) was “inhibited” and the “survival/proliferation of the spheres” value [2] was “inhibited”.
Cc1ccc(S(=O)(=O)Nc2ccc(C(=O)/C=C/c3ccc(O)cc3)cc2)cc1 [TSAHC, 4'-(p-toluenesulfonylamino)-4-hydroxychalcone, reference compound] was tested, and the “phosphorylation of FAK, c-Src, STAT3, and p27” value ([1]; 5 µM, 24 hours (FIG. 5a)) was “decreased”, the “phosphorylation of FAK, c-Src, STAT3, and p27” value [1, 3] was “decreased” and the “phosphorylation of FAK, c-Src … and AKT” value ([1]; 24 hours (FIG. 5c)) was “decreased in a drug concentration-dependent manner”. For the same compound, the “degree of cell proliferation (spheres)” value [2] was “inhibited” and the “degree of sphere proliferation” value [2, 4] was “inhibited, albeit slightly”.
